System: mouse splenocytes
Experiment: Immunological cell type enrichment for genes modulated by GA in mouse splenocytes
Type: cell-based
Design: Score: scale not given here
Text: Genome-wide expression profiles in cells from three different datasets in two different species (human, mouse) were studied. LIMMA was utilized to identify a genome-wide list of differentially expressed genes induced by GA in the primed and ex vivo stimulated mouse splenocytes, as well as in the THP-1 human monocyte cell line. Repeated-measures ANOVA was utilized to find a genome-wide list of genes modulated by GA in treated MS patients. Advanced enrichment algorithms were then applied to elucidate the pathways and cell types modulated by GA.
In addition to the shared induced effects discussed above, each system and platform clearly captured different aspects of GA's impact on the immune system. […] In human PBMCs, genes associated with immune cell types were modulated early in treatment (by month 3), including certain cell types affected in prior systems, but also distinct cell types, such as megakaryocytes and myeloid progenitors (Table 11).

[1] = B.GC.Sp.rnk, Upregulated (top 20 results)
[2] = DC.103.11b..LuLN.rnk, Downregulated (top 20 results)
[3] = DC.103.11b..PolyIC.Lu.rnk, Upregulated (top 20 results)
[4] = DC.103.11b.24..Lu.rnk, Upregulated (top 20 results)
[5] = DC.8.4.11b..SLN.rnk, Downregulated (top 20 results)
[6] = DC.Ilhilang.103.11b..SLN.rnk, Downregulated (top 20 results)
[7] = DC.Ilhilang.103.11blo.SLN.rnk, Downregulated (top 20 results)
[8] = DC.LC.Sk.rnk, Upregulated (top 20 results)
[9] = GN.Arth.BM.rnk, Downregulated (top 20 results)
[10] = GN.Arth.SynF.rnk, Downregulated (top 20 results)
[11] = GN.BI.rnk, Downregulated (top 20 results)
[12] = GN.BM.rnk, Downregulated (top 20 results)
[13] = GN.Thio.PC.rnk, Downregulated (top 20 results)
[14] = GN.UrAc.PC.rnk, Downregulated (top 20 results)
[15] = Mo.6C.Il..BM.rnk, Downregulated (top 20 results)
[16] = Mo.6C.Ilint.BI.rnk, Downregulated (top 20 results)
[17] = NK.H..MCMV1.Sp.rnk, Upregulated (top 20 results)
[18] = NK.MCMV1.Sp.rnk, Upregulated (top 20 results)
[19] = SC.CDP.BM.rnk, Downregulated (top 20 results)
[20] = SC.GMP.BM.rnk, Downregulated (top 20 results)
[21] = SC.MDP.BM.rnk, Downregulated (top 20 results)
[22] = SC.MEP.BM.rnk, Upregulated (top 20 results)
[23] = T.4FP3.25..AA.rnk, Upregulated (top 20 results)
[24] = T.4SP24int.Th.rnk, Downregulated (top 20 results)
[25] = T.8Eff.Sp.OT1.12hr.LisOva.rnk, Upregulated (top 20 results)
[26] = T.8Eff.Sp.OT1.24hr.LisOva.rnk, Upregulated (top 20 results)
[27] = T.8Eff.Sp.OT1.48hr.LisOva.rnk, Upregulated (top 20 results)
[28] = T.8Nve.Sp.OT1.rnk, Downregulated (top 20 results)
[29] = T.DPbl.Th.rnk, Upregulated (top 20 results)
[30] = T.ISP.Th.rnk, Upregulated (top 20 results)
[31] = Tgd.vg2.24ahi.e17.Th.rnk, Upregulated (top 20 results)
[32] = Tgd.vg3.24alo.e17.Th.rnk, Upregulated (top 20 results)
[33] = preB.FrC.BM.rnk, Upregulated (top 20 results)
[34] = preT.DN3B.Th.rnk, Upregulated (top 20 results)
[35] = preT.DN3.4.Th.rnk, Upregulated (top 20 results)
[36] = proB.CLP.BM.rnk, Downregulated (top 20 results)
[37] = proB.CLP.FL.rnk, Downregulated (top 20 results)
[38] = proB.FrA.FL.rnk, Upregulated (top 20 results)
[39] = proB.FrBC.FL.rnk, Upregulated (top 20 results)

glatiramer acetate [Copaxone®] was tested, and the Score [1] was 602.5, the p.val [1] was 1.01E−12 and the Score [2] was 1152. For the same substance, the p.val [2] was 2.47E−06, the Score [3] was 705 and the p.val [3] was 1.44E−14. For the same substance, the Score [4] was 738.3, the p.val [4] was 8.91E−12 and the Score [5] was 1117. It also gave a p.val [5] of 1.86E−07, a Score [6] of 1151 and a p.val [6] of 9.94E−08. The Score [7] was 1112, the p.val [7] was 5.07E−08 and the Score [8] was 709.9. It also gave a p.val [8] of 2.89E−15, a Score [9] of 1218 and a p.val [9] of 0. For the same substance, the Score [10] was 1160, the p.val [10] was 2.72E−11 and the Score [11] was 1185. For the same substance, the p.val [11] was 6.66E−15, the Score [12] was 1212 and the p.val [12] was 1.11E−16. The Score [13] was 1197, the p.val [13] was 6.39E−14 and the Score [14] was 1145. The p.val [14] was 5.87E−14, the Score [15] was 1095 and the p.val [15] was 1.71E−06. For the same substance, the Score [16] was 1107, the p.val [16] was 1.62E−05 and the Score [17] was 770.8. It also gave a p.val [17] of 7.11E−15, a Score [18] of 793.3 and a p.val [18] of 1.51E−14. The Score [19] was 1078, the p.val [19] was 0 and the Score [20] was 1341. It also gave a p.val [20] of 1.56E−05, a Score [21] of 1206 and a p.val [21] of 1.56E−05. The Score [22] was 641.2, the p.val [22] was 0 and the Score [23] was 697.6. The p.val [23] was 2.76E−11, the Score [24] was 1040 and the p.val [24] was 0. For the same substance, the Score [25] was 683, the p.val [25] was 0 and the Score [26] was 661.8. For the same substance, the p.val [26] was 5.97E−14, the Score [27] was 587.7 and the p.val [27] was 0. It also gave a Score [28] of 1095, a p.val [28] of 0 and a Score [29] of 659.3. For the same substance, the p.val [29] was 0, the Score [30] was 584.9 and the p.val [30] was 0. For the same substance, the Score [31] was 620, the p.val [31] was 9.88E−13 and the Score [32] was 620.8. It also gave a p.val [32] of 2.72E−11, a Score [33] of 620.2 and a p.val [33] of 0. The Score [34] was 568, the p.val [34] was 1.64E−10 and the Score [35] was 560.7. The p.val [35] was 2.96E−10, the Score [36] was 1181 and the p.val [36] was 1.35E−06. For the same substance, the Score [37] was 1115, the p.val [37] was 0 and the Score [38] was 578.6. The p.val [38] was 7.17E−11, the Score [39] was 595.3 and the p.val [39] was 0.

Reference: patent publication US20170003277A1 (priority 2015, published 2017)
